This note sets out measurements from PMC5390312, “Genetic visualization of protein interactions harnessing liquid phase transitions” (Scientific Reports, 2017).

The target in the experiment is T1, X-linked inhibitor of apoptosis protein (XIAP) (Homo sapiens, UniProt P98170).
T1 construct: BIR3 domain (XIAP-AG fusion); with Smac N-terminal region (SmacNT-PB1), displaced
The experiment is described as follows: Fluoppi high-content assay in HEK293 cells, Smac/XIAP dissociation. Type of experiment: cell-based.

T1 sequence (P98170 241-356 limits assumed): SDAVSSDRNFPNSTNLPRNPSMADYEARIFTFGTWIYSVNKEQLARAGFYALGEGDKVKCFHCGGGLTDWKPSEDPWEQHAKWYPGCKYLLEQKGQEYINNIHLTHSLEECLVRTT
T1 sequence (Q9NR28 56-239 partner): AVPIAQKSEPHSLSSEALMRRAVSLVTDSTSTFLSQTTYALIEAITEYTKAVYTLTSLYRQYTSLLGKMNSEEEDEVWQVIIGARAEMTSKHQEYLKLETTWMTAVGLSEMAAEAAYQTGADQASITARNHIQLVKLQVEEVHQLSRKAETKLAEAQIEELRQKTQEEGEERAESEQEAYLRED

As for `CN[C@@H](C)C(=O)N[C@H]1CN(C(=O)CC(C)C)CC[C@H]2CC[C@@H](C(=O)NC(c3ccccc3)c3ccccc3)N2C1=O` [AT-406], the IC50 (as a rule, the concentration that gives 50% inhibition) was determined as 9.2 ± 1.2 µM.
